Measured values from patent US20220192996A1, “CORE-SHELL STRUCTURE, PREPARATION, MEDICINE FOR EXTERNAL APPLICATION, TAPE AGENT AND COSMETIC PRODUCT” (SEKISUI CHEMICAL CO., LTD., priority 2019, published 2022).
Structures can show the parent of a compound that is named as a salt.

Tests used:
[1] = Octanol/water partition coefficient; type: physicochemical; conditions: Log10, octanol / aqueous buffer pH 7
Protocol: In the present invention, the octanol/water partition coefficient is determined from the concentration of the active ingredient in each phase by adding the active ingredient to octanol and an aqueous buffer solution having a pH of 7 in a flask and then shaking the flask. Specifically, the octanol/water partition coefficient can be determined by calculating using the formula: octanol/water partition coefficient=Log10 (concentration in octanol phase/concentration in aqueous phase).

dorsal skin of a rabbit = assay: Primary irritation index of the active ingredient (4% by weight in Plastibase); type: in vivo; conditions: 24 h enclosed application
Protocol: The phrase “low skin irritation” means skin irritation having a primary irritation index (P.I.I.) of 5 or less. The primary irritation index can be measured by the following method.
An active ingredient is added and mixed to an ointment base, Plastibase (manufactured by Taisho Pharmaceutical Co., Ltd.) so as to be 4% by weight based on the total weight, and dispersed to produce a preparation.
The dorsal skin of a rabbit is shaved with an electric clipper (with an electric shaver if necessary). On the dorsal healthy skin, two points in each of right and left sides of the dorsal midline, that is, four points in total are set to be an administration site. Next, the produced preparation is taken out with a spatula and spread evenly on a piece of lint having a size of 2 cm×2 cm, and the piece of lint is attached to the administration site. The piece of lint is fixed by covering with a non-woven adhesive bandage (manufactured by Nichiban Co., Ltd., MESHPORE, No. 50). Then, the administration sites are altogether wrapped with gauze and enclosed by covering with an adhesive cloth elastic bandage (manufactured by Nichiban Co., Ltd., ELASTOPORE, No. 100). The enclosure is released 24 hours after the start of administration, and the administered samples are removed.
The skin reaction is visually observed with the naked eye 24 hours after the administration (30 minutes after the release of the enclosure and the removal of the administered samples). […]
Specifically, for each administered sample at each time of observation, the individual score of the skin reaction at the administration site of each rabbit (the total of scores of erythema/eschar formation and edema formation) is calculated. Then, the primary irritation index (P.I.I.) is calculated from the individual scores at 24 hours and 72 hours after the administration (the score at 48 hours after the administration is not added). Specifically, the primary irritation index is calculated using Formulae (1) and (2) described below. […]

CCCc1nc(C)c2c(=O)[nH]c(-c3cc(S(=O)(=O)N4CCN(CC)CC4)ccc3OCC)nn12 [vardenafil hydrochloride hydrate]
octanol/water partition coefficient [1]: 0.0 | logD ([1]; octanol / aqueous buffer solution): 0

CC(C(=O)O)c1ccc(CC2CCCC2=O)cc1 (centres unmarked) [loxoprofen sodium dihydrate]
primary irritation index (P.I.I.) of the active ingredient (dorsal skin of a rabbit): 0.3

CC12CC3CC(C)(C1)CC(N)(C3)C2 [memantine hydrochloride]
primary irritation index (P.I.I.) of the active ingredient (dorsal skin of a rabbit): 2.5

CCN(C)C(=O)Oc1cccc([C@H](C)N(C)C)c1 [rivastigmine]
primary irritation index (P.I.I.) of the active ingredient (dorsal skin of a rabbit): 0.5
